Values after ≈ are worked out from the molar mass of the structure shown. Read-outs that look alike come from different tables or passages of the source. Bridge positions count the residues as written; N and C are the ends. Square brackets hold non-standard residues; d marks the D form. Peptide text beside a SMILES is read from it. I, II: the chains in the order shown. Ahx = NCCCCCC(=O)O
How the values were obtained:
[1] = tested on: Enterococcus faecalis ATCC 29212 (sensitive); assay type: cell-based; details: for Bacterial viability (lowest value observed): untreated control = 100%, Figure 2A
Description: (§1) We screened all five peptides against the ATCC reference strains and the clinical isolates according to Method M7-A7 of the National Committee for Clinical Laboratory Standards (CLSI, [2007]). The MIC50 and MBC values were determined using a broth microdilution and growth inhibition method previously reported by Leon-Calvijo et al. ([2015]), with some modifications (Wiegand et al., [2008]). Briefly, the MIC50 experiments comprised a liquid-inhibition growth assay in a sterile, untreated, 96-well flat-bottom tissue culture plate. The bacteria were cultured overnight n Mueller Hinton agar; three colonies were transferred to 8 mL of Mueller Hilton broth and incubated at 37°C until the mid-exponential phase of growth. The turbidity of the cultures was measured and adjusted spectrophotometrically to a McFarland standard of 0.5, and then diluted to a final concentration of 5 × 10^7 colony forming units (CFU) per well. Stock solutions (2,000 μM) of each test peptide were serially diluted to final concentrations (per well) of 200, 100, 50, 25, 12.5, and 6.25 μM. Each concentration was evaluated in duplicate and each assay was performed in triplicate.
(§2) Wells containing Mueller Hilton broth with bacterial inoculum only served as bacterial-growth controls. Additional controls included Mueller Hilton broth alone (as blank) and Mueller Hilton broth with ciprofloxacin (2 μg/mL; as positive control). The microplate was incubated for 24 h at 37°C, and growth inhibition was measured by monitoring the optical density at 620 nm (OD620). The MIC50 was defined as the peptide concentration at which bacterial growth was inhibited by 50%.
(§3) To determine the MBC, an aliquot from each well of the MIC50 assay was spread onto Mueller Hilton agar. After 18 h at 37°C, the concentration that inhibited bacterial growth was determined. Each of these tests was performed four times. MBC was defined as the lowest concentration of peptide at which the number of bacteria was reduced by 99.9% in vitro (European Committee for Antimicrobial Susceptibility Testing, [2000]).

[2] = tested on: Enterococcus faecalis ATCC 51575 (resistant); assay type: cell-based; details: for Bacterial viability (lowest value observed): untreated control = 100%, Figure 2B
Description: as §1, §2, §3

[3] = tested on: Pseudomonas aeruginosa ATCC 10145 (sensitive); assay type: cell-based
Description: as §1, §2, §3

[4] = tested on: Pseudomonas aeruginosa ATCC 27853 (resistant); assay type: cell-based
Description: as §1, §2, §3

[5] = tested on: Enterococcus faecium clinical isolate 1,462; assay type: cell-based
Description: (§4) For the clinical isolates, we used 20 different isolates from the Public Health Reference Laboratory collection of the Secretaría de Salud del Distrito (SdSD; Bogotá, Colombia). The samples were collected from June to December 2016. For each isolate, the patient parameters (age, gender and location) and the culture site were recorded for epidemiologic monitoring (Table 1). All isolates had been previously tested for antibiotic sensitivity at the Public Health Microbiology Laboratory using either the Phoenix™ system (Gram-positive) or the VITEK 2 system (Gram-negative).
as §1, §2, §3

[6] = tested on: Klebsiella pneumoniae clinical isolate 49,644; assay type: cell-based
Description: as §4, §1, §2, §3

[7] = tested on: Staphylococcus aureus clinical isolate 48,575; assay type: cell-based
Description: as §4, §1, §2, §3

[8] = tested on: Staphylococcus aureus clinical isolate 48,577; assay type: cell-based
Description: as §4, §1, §2, §3

human erythrocytes = assay: Hemolytic activity; assay type: cell-based
Description: Human erythrocytes collected from the blood samples of healthy humans were harvested by centrifugation for 7 min at 162 × g and washed three times in phosphate-buffered saline (PBS). The erythrocytes (2% hematocrit in PBS) were incubated with peptide molecules at several concentrations (6.25, 12.5, 25, 50, and 100 μM) for 2 h at 37°C. PBS was used as negative control for hemolysis, and sterile distilled water was used as positive control (100% hemolysis). The plate was subsequently centrifuged at 1,459 × g for 10 min at 4°C. Aliquots of the supernatant from each well (75 μL) were carefully transferred to a new sterile 96-well plate, and hemolytic activity was evaluated by measuring the OD492 using an Asys Expert Plus Microplate reader. The experiments were performed in duplicate, and hemolytic activity was calculated for each peptide.

[9] = tested on: Gram-negative ATCC strains (K. pneumoniae 13883 and 700603, P. aeruginosa 10145 and 27853); details: for Fold (GM peptide / GM tetrameric peptide): Gram-negative ATCC strains
Text: (§5) We determined the therapeutic index of each peptide, which we defined as the ratio of Maximum Hemolytic Activity (Hmax) to MIC50 (Hmax/MIC50).
The therapeutic index (TI) is a ratio of the toxic dose of a substance to its therapeutically-active dose and can be calculated different ways (e.g., LD50/ED50). Here, we calculated a TI value for each peptide against all the Gram-positive or the Gram-negative ATCC strains, by dividing its Hmax by its MIC50 for the given group of strains. […] Additionally, to make our quantitative analysis more robust [geometric mean (Khachatryan et al., [2017]) and fold values], we have included MIC50 values for these peptides against S. aureus and K. pneumoniae that we previously obtained using the same assay, the M7-A7 method of the National Committee for Clinical Laboratory Standards (Leon-Calvijo et al., [2015]).

[10] = tested on: clinical isolates of Gram-negative bacteria (Klebsiella pneumoniae, Pseudomonas aeruginosa); assay: Therapeutic index, Gram-negative clinical isolates; details: for Fold (GM peptide / GM tetrameric peptide): Gram-negative clinical isolates
Text: as §5
The results are shown in Table 7 (Gram-positive) and Table 8 (Gram-negative). Regarding the Gram-positive bacteria, the palindromic, dimeric and tetrameric peptides were active chiefly against S. aureus. This trend was consistent with results of the experiments on the ATCC strains, in which these peptides were only active against the sensitive strain of the […] bacteria.

N=C(N)NCCC[C@H](NC(=O)[C@H](Cc1c[nH]c2ccccc12)NC(=O)[C@H](CCC(N)=O)NC(=O)[C@H](Cc1c[nH]c2ccccc12)NC(=O)[C@H](CCCNC(=N)N)NC(=O)[C@@H](N)CCCNC(=N)N)C(=O)NCCCC[C@H](NC(=O)[C@H](CCCNC(=N)N)NC(=O)[C@H](Cc1c[nH]c2ccccc12)NC(=O)[C@H](CCC(N)=O)NC(=O)[C@H](Cc1c[nH]c2ccccc12)NC(=O)[C@H](CCCNC(=N)N)NC(=O)[C@@H](N)CCCNC(=N)N)C(=O)NCCCCCC(N)=O [LfcinB (20–25)2] (I: H-RRWQWRK[Ahx]-NH2 / II: H-RRWQWR; amide I:7-II:C; N-terminus assumed)
Bacterial viability (lowest value observed) ([1]; 25 μM): 40.9%
MBC ([1]; ATCC 29212, 18 h): 100.0 µM (≈ 220 µg/mL)
MIC50 ([1]; ATCC 29212, 24 h): 13.1 µM (≈ 28.8 µg/mL)
MBC relative to MBC of the tetrameric peptide (× MBCtet) ([1]; sensitive E. faecalis strain): 4 × MBCtet
Bacterial viability (lowest value observed) ([2]; 25.0 μM): 65.3%
MBC ([2]; ATCC 51575, 18 h): >200.0 µM
MIC50 ([2]; ATCC 51575, 24 h): >200.0 µM
MBC ([3]; ATCC 10145, 18 h): 100.0 µM (≈ 220 µg/mL)
MIC50 ([3]; ATCC 10145, 24 h): 29.1 µM (≈ 63.9 µg/mL)
MBC relative to MBC of the tetrameric peptide (× MBCtet) ([3]; sensitive P. aeruginosa strain): 4 × MBCtet
MBC ([4]; ATCC 27853, 18 h): 200.0 µM (≈ 439 µg/mL)
MIC50 ([4]; ATCC 27853, 24 h): 34.8 µM (≈ 76.4 µg/mL)
MBC relative to MBC of the tetrameric peptide (× MBCtet) ([4]; resistant P. aeruginosa strain): 4 × MBCtet
MBC ([5]; clinical isolate 1,462, 18 h): >100 µM
MIC50 ([5]; clinical isolate 1,462, 24 h): 49.8 µM (≈ 109 µg/mL)
MBC ([6]; clinical isolate 49,644, 18 h): 50.0 µM (≈ 110 µg/mL)
MIC50 ([6]; clinical isolate 49,644, 24 h): 12.3 µM (≈ 27 µg/mL)
MBC ([7]; clinical isolate 48,575, 18 h): 25.0 µM (≈ 54.9 µg/mL)
MIC50 ([7]; clinical isolate 48,575, 24 h): 13.4 µM (≈ 29.4 µg/mL)
MBC ([8]; clinical isolate 48,577, 18 h): 50.0 µM (≈ 110 µg/mL)
MIC50 ([8]; clinical isolate 48,577, 24 h): 12.9 µM (≈ 28.3 µg/mL)
H50, concentration of peptide leading to 50% hemolysis (human erythrocytes; red cells of human, 2 h): >100 µM
Gm, geometric mean of MIC50 values [9]: 16.1
Fold (GM peptide / GM tetrameric peptide) [9]: 1.2
Gm, geometric mean of MIC50 values [10]: 16.8 µM
Fold (GM peptide / GM tetrameric peptide) [10]: 1.7

(RRWQWR)4K2Ahx2C2 (disulfide) [LfcinB (20–25)4, branched tetrameric peptide (RRWQWR)4K2Ahx2C2, two dimers linked by a cysteine disulfide bridge]
Bacterial viability (lowest value observed) ([1]; 6.2 μM): 48.9%
MBC ([1]; E. faecalis ATCC 29212 sensitive, aliquots of MIC50 wells on Mueller Hinton agar, 18 h 37°C, 99.9% reduction): 25.0 µM
MIC50 ([1]; E. faecalis ATCC 29212 sensitive, broth microdilution, Mueller Hinton broth, 24 h 37°C, OD620, concentration inhibiting growth by 50%): 3.1 µM
Bacterial viability (lowest value observed) ([2]; 12.5 μM): 62.4%
MIC50 ([2]; E. faecalis ATCC 51575 resistant, broth microdilution, 24 h 37°C, OD620, 50% growth inhibition): >200.0 µM
MBC ([2]; E. faecalis ATCC 51575 resistant, plated on Mueller Hinton agar, 18 h 37°C, 99.9% reduction): >200.0 µM
MIC50 ([3]; P. aeruginosa ATCC 10145 sensitive, broth microdilution, 24 h 37°C, OD620, 50% growth inhibition): 18.1 µM
MBC ([3]; P. aeruginosa ATCC 10145 sensitive, plated on Mueller Hinton agar, 18 h 37°C, 99.9% reduction): 50.0 µM
MIC50 ([4]; P. aeruginosa ATCC 27853 resistant, broth microdilution, 24 h 37°C, OD620, 50% growth inhibition): 21.7 µM
MBC ([4]; P. aeruginosa ATCC 27853 resistant, plated on Mueller Hinton agar, 18 h 37°C, 99.9% reduction): 50.0 µM
MIC50 ([5]; E. faecium isolate 1,462, broth microdilution, 24 h 37°C, OD620, 50% growth inhibition): >100 µM
MBC ([5]; E. faecium isolate 1,462, plated on agar 18 h 37°C, 99.9% reduction): 12.5 µM
MIC50 ([7]; S. aureus isolate 48,575, broth microdilution, 24 h 37°C, OD620, 50% growth inhibition): 9.2 µM
MBC ([7]; S. aureus isolate 48,575, plated on agar 18 h 37°C, 99.9% reduction): 12.5 µM
MIC50 ([8]; S. aureus isolate 48,577, broth microdilution, 24 h 37°C, OD620, 50% growth inhibition): 6.3 µM
MBC ([8]; S. aureus isolate 48,577, plated on agar 18 h 37°C, 99.9% reduction): 100.0 µM
Hmax relative to that of the dimer (human erythrocytes): 8 x
Fold (GM peptide / GM tetrameric peptide) [9]: 1.0
Gm, geometric mean of MIC50 values ([9]; Gram-negative ATCC strains 13883, 700603, 10145, 27853, in µM): 13.1
Fold (GM peptide / GM tetrameric peptide) [10]: 1.0
Gm, geometric mean of MIC50 values ([10]; Gram-negative clinical isolates (K. pneumoniae, P. aeruginosa) with a printed MIC50): 9.7 µM

Reference: article PMC5840262, “Design, Synthesis and Evaluation of Branched RRWQWR-Based Peptides as Antibacterial Agents Against Clinically Relevant Gram-Positive and Gram-Negative Pathogens” (Frontiers in Microbiology, 2018)
